In patent publication US20190142800A1, “SYNERGISTIC ANTIFUNGAL COMPOSITIONS AND METHODS THEREOF” (VYOME THERAPEUTICS LIMITED, priority 2016, published 2019):
Values belong to the compound of their own block, whether it stands above or below them.

Key:
M. furfur (MTCC 1374) = test: Lipid assimilation in vitro assay: fatty acids/esters as nutrients for growth of M. furfur; format: cell-based, Malassezia furfur; conditions: Sabouraud dextrose agar, after 6 days
Source text: Malassezia species are lipophilic unipolar yeasts recognized as commensals of skin that may be pathogenic under certain conditions (Jindo et al 2004: Indian Journal of Medical Microbiology (22: 179). To compare lipid requirements of the fungus most closely associated with dandruff/seborrheic dermatitis, the best studied Malassezia species is M. furfur. Lipid assimilation in vitro assay was designed to investigate lipid effect on growth of M. furfur (MTCC 1374).
Briefly, Sabouraud Dextrose containing low-melt agar was melted, cooled to 38° C. Fatty acids/esters constituents eg, propylene glycol monocaprylate (C-8), capric acid (C-10), caprylic acid (C-8), linoleic acid (C-18), oleic acid (C-18), palmitic acid (C-16), ethyl oleate (C-18), and oils containing fatty acid/esters eg, coconut oil, mustard oil etc., were added to study the growth of the fungus (Kaw Bing CHUA, et al Malaysian J Pathol (2005) 27(2): 99). After solidification, agar plates were streaked with M. furfur innoculum adjusted to appropriate cfu/ml, aseptically. Positive control with 2% olive oil and negative control without fatty substance were also maintained.

[1] = test system: terbinafine resistant Trichophyton interdigitale (GTB-2S); test: Checkerboard assay on terbinafine resistant Trichophyton interdigitale (GTB-2S); format: cell-based; conditions: for MIC: Trichophyton interdigitale, agent alone, Table 7
Description: The synergy is measured by determining the fractional inhibitory concentration (FIC) value of the combination. This experimental set up, called checkerboard method, allows measurement of a desired effect (inhibition of fungal growth in this case) at different combinations of various concentrations of the two agents (antifungal agent and fatty acid/ester). […] No agent is added to the penultimate column on the right and the bottom row. The final column on the right is used for growth control (only inoculum in broth) and sterility control (broth alone, no inoculum). […] FIC values for both agents in a particular well were calculated in this way followed by determination of the FIC index (sum of the FICs of each drug in the concerned well). […] Agents Chemother.
(§1) Using the checkerboard layout experimental setup described above (FIG. 1A), various medium-chain fatty acids were tested for their ability to potentiate the activity of a known antifungal agent. Concentrations above and below the MIC of each test agent were tested using serial dilution. The same procedure was expanded to test combinations of various medium-chain fatty acids C-1 to C-14 (such caprylic acid, undecylenic acid and lauric acid) and esters thereof, with antifungal agents from various classes including azoles, allylamines, benzylamines, zinc pyrithione and piroctone olamine against both susceptible and resistant Trichophyton spp. (filamentous fungus) and Candida spp. (yeast).
Potentiation of the activity of antimycotic agents using ester derivatives of medium chain fatty acids was tested in a standard, well accepted in vitro assay system to check for synergy. This experimental set up, called checkerboard method, allows measurement of a desired effect (inhibition of fungal growth in this case) at different combinations of various concentrations of two agents. A chosen medium chain fatty acid (C-1 to C-14) or its ester derivative was tested for its ability to potentiate the activity of a known antifungal agent (various classes) using the checkerboard layout. Various concentrations above and below the MIC of each test agent were tested using serial dilution in Sabouraud dextrose broth. […] FIC values for both test agents in a particular well are calculated in this way followed by determination of the FIC index (sum of the FICs of each drug in the concerned well).

C. albicans (ATCC-90028) = test: Checkerboard assay on C. albicans (ATCC-90028); format: cell-based, Candida albicans; conditions: for MIC: Candida albicans, ATCC90028, agent alone, Table 8
Description: (§2) The synergy is measured by determining the fractional inhibitory concentration (FIC) value of the combination. This experimental set up, called checkerboard method, allows measurement of a desired effect (inhibition of fungal growth in this case) at different combinations of various concentrations of the two agents (antifungal agent and fatty acid/ester). […] No agent is added to the penultimate column on the right and the bottom row. The final column on the right is used for growth control (only inoculum in broth) and sterility control (broth alone, no inoculum). […] FIC value for each agent in a particular well of the checkerboard layout was calculated by dividing the agent concentration in that well by the established MIC value of the agent against the test organism (Hsieh et al., Synergy assessed by checkerboard: A critical Analysis, Diagn. Microbiol. Infect Dis. (1993) 16:343-349). FIC values for both agents in a particular well were calculated in this way followed by determination of the FIC index (sum of the FICs of each drug in the concerned well). […] Agents Chemother. (2010) 54(2): 602-609].
as §1
Potentiation of the activity of antimycotic agents using ester derivatives of medium chain fatty acids was tested in a standard, well accepted in vitro assay system to check for synergy. This experimental set up, called checkerboard method, allows measurement of a desired effect (inhibition of fungal growth in this case) at different combinations of various concentrations of two agents. A chosen medium chain fatty acid (C-1 to C-14) or its ester derivative was tested for its ability to potentiate the activity of a known antifungal agent (various classes) using the checkerboard layout. Various concentrations above and below the MIC of each test agent were tested using serial dilution in Sabouraud dextrose broth. […] FIC value for a drug in a particular well of the checkerboard layout is calculated by dividing the drug concentration in that well by the established MIC value of the drug against the test organism (Hsieh et al., Synergy assessed by checkerboard: A critical Analysis, Diagn. Microbiol. Infect Dis. (1993) 16:343-349). FIC values for both test agents in a particular well are calculated in this way followed by determination of the FIC index (sum of the FICs of each drug in the concerned well).

[2] = test system: azole resistant C. albicans MTCC 227; test: Checkerboard assay on azole resistant C. albicans MTCC 227; format: cell-based, Candida albicans; conditions: for MIC: Candida albicans, MTCC227, agent alone
[3] = test system: Trichophyton rubrum (ATCC-28188); test: Checkerboard assay of fatty acid/ester with antifungals on Trichophyton rubrum (ATCC 28188); format: cell-based; set-up: key to FIC index: FIC index = sum of FICs; FIC = agent conc in well / agent MIC; conditions: for MIC: Trichophyton rubrum, ATCC28188, agent alone
C. albicans = test: Checkerboard assay of clotrimazole and oleic acid (C18) in C. albicans; format: cell-based, Candida albicans; conditions: clotrimazole + oleic acid, FIGS. 1B and 1C
Description: as §2

[4] = Table 9, caprylic acid (C8) series
[5] = Table 11, glyceryl monocaprylate series
[6] = agent's MIC in combination antifungal + glyceryl monocaprylate (partner: other agent of same combination no.)
[7] = combination antifungal + glyceryl monocaprylate
[8] = agent's MIC in combination antifungal + caprylic acid (partner: other agent of same combination no.)
[9] = agent's MIC in combination antifungal + lauric acid (partner: other agent of same combination no.)
[10] = agent's MIC in combination antifungal + propylene glycol monolaurate (partner: other agent of same combination no.)
[11] = antifungal in combination with caprylic acid
[12] = antifungal in combination with glyceryl monocaprylate
[13] = antifungal in combination with lauric acid
[14] = antifungal in combination with propylene glycol monocaprylate
[15] = antifungal in combination with propylene glycol monolaurate
[16] = combination antifungal + caprylic acid
[17] = combination antifungal + lauric acid
[18] = combination antifungal + propylene glycol monolaurate
[19] = antifungal in combination with undecylenic acid

Compound: CCCCCCCC/C=C\CCCCCCCC(=O)OCC [ethyl oleate]
growth of M. furfur on culture media containing the fatty acid/ester or oil (M. furfur (MTCC 1374)): confluent growth

Compound: CCCCCCCCCC(=O)O [capric acid]
growth of M. furfur on culture media containing the fatty acid/ester or oil (M. furfur (MTCC 1374)): no growth

MIC [1]: 15.6 µg/mL
Combination MIC ([1]; agent's MIC in combination terbinafine or butenafine + caprylic acid): 7.812 µg/mL
MIC (C. albicans (ATCC-90028)): 125 µg/mL
Combination MIC (C. albicans (ATCC-90028); agent's MIC in combination luliconazole + caprylic acid): 31.25 µg/mL
MIC [2, 4]: 250 µg/mL
Compound: CCCCCCCC(=O)O [Caprylic acid]
growth of M. furfur on culture media containing the fatty acid/ester or oil (M. furfur (MTCC 1374)): no growth
FIC ([1]; combination terbinafine or butenafine + caprylic acid): 0.5
FIC (C. albicans (ATCC-90028); combination luliconazole + caprylic acid): 0.25

MIC [1]: 15.6 µg/mL
Combination MIC ([1]; agent's MIC in combination terbinafine or butenafine + glyceryl monocaprylate): 7.812 µg/mL
MIC (C. albicans (ATCC-90028)): 500 µg/mL
Combination MIC (C. albicans (ATCC-90028); agent's MIC in combination luliconazole + glyceryl monocaprylate): 31.25 µg/mL
MIC [2, 5]: 1250 µg/mL
Combination MIC [2, 6]: 312.5 µg/mL
Compound: CCCCCCCC(=O)OCC(O)CO (stereo not drawn) [Glyceryl monocaprylate]
FIC ([1]; combination terbinafine or butenafine + glyceryl monocaprylate): 0.5
FIC (C. albicans (ATCC-90028); combination luliconazole + glyceryl monocaprylate): 0.0625
FIC [2, 7]: 0.25

Compound: CCCCC/C=C\C/C=C\CCCCCCCC(=O)O [linoleic acid]
growth of M. furfur on culture media containing the fatty acid/ester or oil (M. furfur (MTCC 1374)): confluent growth

Compound: CCCCCCCCCCCCCCCC(=O)O [palmitic acid]
growth of M. furfur on culture media containing the fatty acid/ester or oil (M. furfur (MTCC 1374)): confluent growth

Compound: CCCCCCCC/C=C\CCCCCCCC(=O)O [oleic acid]
growth of M. furfur on culture media containing the fatty acid/ester or oil (M. furfur (MTCC 1374)): confluent growth

MIC ([3]; Table 1, caprylic acid series): 0.6 µg/mL
MIC ([3]; Table 2, propylene glycol monocaprylate series): 0.6 µg/mL
MIC ([3]; Table 3, glyceryl monocaprylate series): 0.6 µg/mL
MIC ([3]; Table 5, lauric acid (C12) series): 0.5 µg/mL
MIC ([3]; Table 6, propylene glycol monolaurate series): 0.5 µg/mL
Combination MIC [3, 8]: 0.075 µg/mL
Combination MIC [3, 6]: 0.075 µg/mL
Combination MIC [3, 9]: 0.125 µg/mL
Combination MIC [3, 10]: 0.125 µg/mL
MIC [2, 4]: 8 µg/mL
MIC ([2]; Table 10, propylene glycol monocaprylate series): 16 µg/mL
MIC [2, 5]: 16 µg/mL
MIC ([2]; Table 12, undecylenic acid (C11) series): 16 µg/mL
MIC ([2]; Table 13, lauric acid (C12) series): 8 µg/mL
MIC ([2]; Table 14, propylene glycol monolaurate series): 16 µg/mL
Combination MIC [2, 8]: 0.25 µg/mL
Combination MIC [2, 6]: 4 µg/mL
Combination MIC [2, 9]: 1 µg/mL
Combination MIC ([2]; agent's MIC in combination antifungal + propylene glycol monocaprylate (partner: other agent of same combination no.)): 4 µg/mL
Combination MIC [2, 10]: 8 µg/mL
Combination MIC ([2]; agent's MIC in combination antifungal + undecylenic acid (partner: other agent of same combination no.)): 2 µg/mL
Compound: Clc1ccccc1C(c1ccccc1)(c1ccccc1)n1ccnc1 [Clotrimazole]
FIC index [3, 11]: 0.375
Interaction [3, 11]: Synergistic (Combinations that gave FIC indices less than 1 were designated “synergistic”)
FIC index [3, 12]: 0.625
Interaction [3, 12]: Synergistic (Combinations that gave FIC indices less than 1 were designated “synergistic”)
FIC index [3, 13]: 0.75
Interaction [3, 13]: Synergistic (Combinations that gave FIC indices less than 1 were designated “synergistic”)
Interaction [3, 14]: Synergistic (Combinations that gave FIC indices less than 1 were designated “synergistic”)
FIC index [3, 15]: 0.5
Interaction [3, 15]: Synergistic (Combinations that gave FIC indices less than 1 were designated “synergistic”)
FIC [3, 16]: 0.125
FIC [3, 7]: 0.125
FIC [3, 17]: 0.25
FIC [3, 18]: 0.25
combination activity (interaction) with oleic acid (C18) (C. albicans): antagonistic effect
FIC index [2, 11]: 0.093
Interaction [2, 11]: Synergistic (Combinations that gave FIC indices less than 1 were designated “synergistic”)
FIC index [2, 12]: 0.5
Interaction [2, 12]: Synergistic (Combinations that gave FIC indices less than 1 were designated “synergistic”)
FIC index [2, 13]: 0.187
Interaction [2, 13]: Synergistic (Combinations that gave FIC indices less than 1 were designated “synergistic”)
FIC index [2, 14]: 0.312
Interaction [2, 14]: Synergistic (Combinations that gave FIC indices less than 1 were designated “synergistic”)
FIC index [2, 15]: 0.515
Interaction [2, 15]: Synergistic (Combinations that gave FIC indices less than 1 were designated “synergistic”)
FIC index [2, 19]: 0.187
Interaction [2, 19]: Synergistic (Combinations that gave FIC indices less than 1 were designated “synergistic”)
FIC [2, 16]: 0.031
FIC [2, 7]: 0.25
FIC [2, 17]: 0.125
FIC ([2]; combination antifungal + propylene glycol monocaprylate): 0.25
FIC [2, 18]: 0.5
FIC ([2]; combination antifungal + undecylenic acid): 0.125
